{"source": "paper PMC3388351", "about": "“Pseudolaric Acid B Induces Caspase-Dependent and Caspase-Independent Apoptosis in U87 Glioblastoma Cells” (Evidence-based Complementary and Alternative Medicine : eCAM, 2012)", "key": {"U87 glioblastoma cells [1]": {"tested_on": "U87 glioblastoma cells", "assay": "Cell viability by MTT assay", "assay_type": "cell-based", "details": "24 h; for IC50: read-out: IC50, growth inhibition of U87 glioblastoma cells", "description": "U87 glioblastoma cells were obtained from American Type Culture Collection (ATCC, USA) and maintained in Dulbecco's Modified Eagle's Medium (DMEM) supplemented with 10% fatal bovine serum (FBS) in 5% CO2 at 37°C. Cells were treated with various concentrations of PLAB dissolved in DMSO with a final DMSO concentration of 1% or with DMSO alone for 24 h. DMSO-treated cells were used as control.\nCell viability was assessed by MTT assay and live/dead assay as described by us previously. Briefly U87 cells were treated with various concentrations of PLAB (1 to 100 μM) or Doxorubicin (0.25 to 20 μM) for 24 h. Following treatment, the MTT reagent was added (500 μg/mL) and cells were further incubated at 37°C for 4 h. Subsequently 150 μL DMSO was added to dissolve farmazan crystals and absorbance was measured at 570 nm in a microplate reader (Thermo Scientific). Results were expressed as the percentage of MTT reduction, assuming that the absorbance of control cells was 100%."}, "U87 glioblastoma cells [2]": {"tested_on": "U87 glioblastoma cells", "assay": "Flow cytometry analysis of apoptosis (Annexin V/PI)", "assay_type": "cell-based", "details": "24 h, in % (unit assumed)", "description": "U87 cells were treated with 5 and 10 μM PLAB in the presence or absence of z-VAD-fmk and PFTα for 24 h. After treatment, both adherent and floating cells were collected, washed with PBS, and resuspended in 200 μL of binding buffer containing 5 μL Annexin V and put in the dark for 10 min according to the kit instructions (Beyotime, Shanghai, China). After incubation, cells were labeled with 10 μL PI and samples were immediately analyzed by flow cytometry (Beckman Coulter, Epics XL)."}, "U87 glioblastoma cells [3]": {"tested_on": "U87 glioblastoma cells", "assay": "Flow cytometry analysis of cell cycle (PI)", "assay_type": "cell-based", "details": "24 h; for cells in G2/M phase: Mean ± SEM, n = 3, control 17.63 ± 2.06", "description": "U87 cells were treated with 5 and 10 μM PLAB for 24 h. Following treatment, cells were harvested, washed with PBS, and fixed with 70% ethanol at 4°C for overnight. After washing twice with PBS, cells were stained with a solution containing 50 μg/mL PI and 100 μg/mL RNase A for 30 min in the dark, at room temperature. The DNA contents were analyzed by flow cytometry (Beckman Coulter, Epics XL)."}, "tumor in nude mice": {"tested_on": "tumor in nude mice", "details": "15 mg/kg and 25 mg/kg; ref Wong et al. [14]; cited from earlier work"}, "[4]": {"tested_on": "p53, Bcl-2, Bax, Caspase-3, PARP, cytochrome c, AIF in U87 glioblastoma cells", "assay": "Western blot of apoptosis regulators", "assay_type": "cell-based", "details": "24 h", "description": "(§1) After drug treatment, adherent and floating cells were collected and proteins were isolated as described previously. Nuclear and cytosolic proteins were extracted using cytosolic and nuclear extraction kit (Keygen, China) according to the manufacturer's instructions. 40 μg proteins were electrophoresed on 10% SDS-PAGE and transferred to PVDF membrane. After blocking with 5% (w/v) nonfat milk and washing with Tris-buffered saline-Tween solution (TBST), membranes were incubated overnight at 4°C with p53 (1 : 1000), BCL-2 (1 : 1000), Bax (1 : 300), Cytochrome c (1 : 200), Caspase-3 (1 : 500), Tubulin (1 : 500), Cyclin B1 (1 : 300), Cdc2 (1 : 300), β-actin (1 : 400), and AIF (1 : 1000) antibodies, respectively. After washing, the blots were incubated with horseradish peroxidase-conjugated goat anti-rabbit IgG or goat anti-mouse IgG or rabbit anti-goat IgG secondary antibodies (1 : 1000, Santa Cruz) for 1 h at room temperature. After washing with TBST, signals were detected using ECL plus chemiluminescence kit on X-ray film (Millipore Corporation, Billerica, USA)."}, "[5]": {"tested_on": "polymeric tubulin, cyclin B1, CDK1/Cdc2 in U87 glioblastoma cells", "assay": "Western blot of G2/M phase cell cycle regulators", "assay_type": "cell-based", "details": "10 μM PLAB, 3 μM colchicine, 24 h", "description": "as §1\nBriefly the cell pellet was resuspended in 0.4 mL monomeric extraction buffer (20 mM Tris-HCl, pH 6.8, 0.14 M NaCl, 1 mM MgCl2, 1 mM EGTA, 0.5% Nonidet P-40 (NP-40), 0.5 mM PMSF, and 4 μg/mL paclitaxel), centrifuge at 12,000 ×g for 10 min and supernatant was removed. The pellets containing polymeric tubulin were resuspended in WIP cell lysis reagent (BIOSS, Beijing Biosynthesis Biotechnology Co., Ltd.) for 30 min and the supernatants (polymeric tubulins) were collected by centrifugation at 12,000 ×g for 10 min. The polymeric tubulins were subjected to Western blot analysis."}, "U87 glioblastoma cells [6]": {"tested_on": "U87 glioblastoma cells", "assay": "Live/dead assay, calcein AM and PI, flow cytometry", "assay_type": "cell-based", "details": "24 h, read-out: viability of U87 glioblastoma cells (live/dead assay)", "description": "Furthermore, live and dead cells were quantified using the fluorescent probes calcein AM and PI. Calcein AM is cell membrane permeable and stains only viable cells, whereas PI is cell membrane impermeable and stains only dead cells. After treatment, cells were collected, washed with phosphate buffered saline (PBS) and incubated with PBS solution containing 2 μM calcein AM and 4 μM PI in the dark for 20 min at room temperature. After washing, cells were resuspended in PBS and analyzed for the fluorescence of calcein and PI by flow cytometry (Beckman Coulter, Epics XL)."}, "Kunming mice": {"tested_on": "Kunming mice", "assay": "In vivo organ toxicity (liver, kidneys, body weight, serum biomarkers)", "set-up": "species or system mouse", "details": "25 mg/kg intraperitoneally daily for 14 days", "description": "In vivo studies were conducted on 12-14 week old Kunming mice weighing 43-45 g. The mice were maintained in a specific pathogen-free grade animal facility on a 12 h light/dark cycles at 25 ± 2°C. Mouse procedures were approved by the Experimental Animal Committee of Jilin University. Mice were divided into two groups. Group A (n = 5) administered with 50 μL DMSO intraperitoneally; Group B (n = 5) administered with PLAB (25 mg/kg body weight) in 50 μL DMSO intraperitoneally. The experiment was conducted over a period of two weeks. DMSO or drug was administered daily for 14 days, once a day. At the first and last day of the experiment, the body weight of each mouse was measured. At the end of experiment, mice were anesthetized using Pentobarbital sodium (50 mg/kg ip), blood was collected via cardiac puncture, allowed to clot for 10 min, centrifuge at 1000 ×g for 10 min at room temperature. Serum was separated and stored at -20°C until analysis. The liver and kidneys were excised and processed for hematoxylin and eosin staining followed standard procedures. The toxicological effect of PLAB on liver function was assessed by measuring the serum levels of AST, ALT and TBIL. Nephrotoxicity was determined by measuring the serum levels of BUN and Cr. These biochemical parameters were determined by an automated biochemical analyzer ([…] 7170, Japan)."}, "U87 glioblastoma cells [7]": {"tested_on": "U87 glioblastoma cells", "assay": "Nuclear morphology / DNA fragmentation by Hoechst 33258 staining", "assay_type": "cell-based", "details": "5 and 10 μM, 24 h, Hoechst 33258, dose-dependent", "description": "After treatment with 5 and 10 μM PLAB for 24 h, U87 cells were collected by centrifugation at 1500 rpm for 5 min, washed twice with PBS and fixed with 4% paraformaldehyde at room temperature for 30 min. After centrifugation, cells were washed with PBS, stained with Hoechst 33258 (50 μg/mL) and incubated at 37°C for 30 min. At the end of incubation, cells were washed and resuspended in PBS for the observation of nuclear morphology under fluorescence microscope (Olympus 1 × 71). At the end, 100 nuclei from control and PLAB-treated groups were counted microscopically for the percentage of cleaved nuclei."}}}
{"smiles": "COc1cccc2c1C(=O)c1c(O)c3c(c(O)c1C2=O)C[C@@](O)(C(=O)CO)C[C@@H]3O[C@H]1C[C@H](N)[C@H](O)[C@H](C)O1", "note": "[Doxorubicin, reference compound]", "values": [{"measurement": "IC50", "setting": "U87 glioblastoma cells [1]", "result": 1.8, "unit": "µM"}]}
{"smiles": "COC(=O)C1=CC[C@@]23CC[C@@H]([C@@](C)(/C=C/C=C(\\C)C(=O)O)OC2=O)[C@@]3(OC(C)=O)CC1", "note": "[PLAB, Pseudolaric acid B]", "values": [{"measurement": "apoptosis rate", "setting": "U87 glioblastoma cells [2]; 5 μM, Mean ± SEM, n = 3, control 2.52 ± 0.49", "result": "24.43 ± 1.50"}, {"measurement": "apoptosis rate", "setting": "U87 glioblastoma cells [2]; 10 μM PLAB with general caspase inhibitor z-VAD-fmk (20 μM)", "result": "16.92 ± 1.30"}, {"measurement": "apoptosis rate", "setting": "U87 glioblastoma cells [2]; 10 μM PLAB with p53 inhibitor PFTα (20 μM)", "result": "33.42 ± 2.85"}, {"measurement": "apoptosis rate", "setting": "U87 glioblastoma cells [2]; 10 μM, Mean ± SEM, n = 3, control 2.52 ± 0.49", "result": "50.12 ± 3.42"}, {"measurement": "cells in G2/M phase", "setting": "U87 glioblastoma cells [3]; 5 μM", "result": "42.25 ± 2.95"}, {"measurement": "cells in G2/M phase", "setting": "U87 glioblastoma cells [3]; 10 μM", "result": "67.32 ± 1.83"}, {"measurement": "effect of caspase inhibitor on PLAB-induced mitotic arrest", "setting": "U87 glioblastoma cells [3]; PLAB with z-VAD-fmk (20 μM)", "result": "did not prevent mitotic arrest"}, {"measurement": "growth of tumor in nude mice", "setting": "tumor in nude mice", "result": "significantly inhibited the growth of tumor"}, {"measurement": "toxicity / body weight loss in nude mice", "setting": "tumor in nude mice", "result": "without any sign of toxicity or body weight loss"}, {"measurement": "PARP cleavage", "setting": "[4]", "result": "cleavage of PARP into 85 kDa protein"}, {"measurement": "caspase-3 cleavage", "setting": "[4]", "result": "cleaved the caspase-3 into 17 kDa and 12 kDa proteins"}, {"measurement": "expression of Bax", "setting": "[4]", "result": "increased expression of Bax"}, {"measurement": "expression of Bcl-2", "setting": "[4]", "result": "remarkably decreased"}, {"measurement": "expression of cytochrome c in cytosol", "setting": "[4]; cytosolic proteins", "result": "increased the expression of cytochrome c in cytosol"}, {"measurement": "expression of p53", "setting": "[4]; dose-dependent", "result": "markedly increased the expression of p53"}, {"measurement": "AIF nuclear translocation", "setting": "[4]; nuclear proteins", "result": "increased the expression of AIF in nucleus dose-dependently"}, {"measurement": "expression of Cdk1 (Cdc2)", "setting": "[5]", "result": "no change in the expression of Cdk1 (Cdc2)"}, {"measurement": "expression of cyclin B1", "setting": "[5]", "result": "increased the expression of cyclin B1"}, {"measurement": "expression of polymeric tubulin (tubulin polymerization)", "setting": "[5]", "result": "downregulated polymeric tubulin"}, {"measurement": "viability at 5 µM", "setting": "U87 glioblastoma cells [6]", "result": "74.7 ± 1.83", "unit": "%"}, {"measurement": "viability at 10 µM", "setting": "U87 glioblastoma cells [6]", "result": "56.9 ± 3.47", "unit": "%"}, {"measurement": "histopathological changes in liver and kidneys", "setting": "Kunming mice; hematoxylin and eosin staining", "result": "No obvious morphological changes"}, {"measurement": "TBIL, serum", "setting": "Kunming mice; n = 5, Mean ± SEM, control 1.0 ± 0.12, n.s.", "result": "1.2 ± 0.26", "unit": "n.s. μmol/L"}, {"measurement": "BUN, serum", "setting": "Kunming mice; n = 5, Mean ± SEM, control 10.94 ± 3.01, n.s.", "result": "9.45 ± 2.53", "unit": "n.s. mmol/L"}, {"measurement": "Cr, serum", "setting": "Kunming mice; n = 5, Mean ± SEM, control 27.4 ± 2.17, n.s.", "result": "36.5 ± 1.99", "unit": "n.s. μmol/L"}, {"measurement": "ALT, serum", "setting": "Kunming mice; n = 5, Mean ± SEM, control 47.30 ± 3.70, n.s.", "result": "55.45 ± 4.35", "unit": "n.s. U/L"}, {"measurement": "AST, serum", "setting": "Kunming mice; n = 5, Mean ± SEM, control 79 ± 5.50, n.s.", "result": "87.66 ± 4.17", "unit": "n.s. U/L"}, {"measurement": "change in body weight of mice", "setting": "Kunming mice; versus control group", "result": "No obvious change in body weight"}, {"measurement": "inhibition at 100 µM", "setting": "U87 glioblastoma cells [1]; 100 μM, read-out: inhibition rate", "result": "> 85", "unit": "%"}, {"measurement": "IC50", "setting": "U87 glioblastoma cells [1]", "result": "~10", "unit": "µM"}, {"measurement": "nuclear morphological changes", "setting": "U87 glioblastoma cells [7]", "result": "induced obvious nuclear morphological changes including nuclear shrinkage and DNA fragmentation"}]}
